In patent US5731285A, “Tachiquinine antagonist tricyclic compounds, preparation of same and pharmaceutical compositions containing such compounds” (A. Menatini Industrie Farmaceutiche, priority 1992, dated 1998):
Positions of bridges follow the written chain, without caps; N, C: chain ends. Non-standard residues stand in square brackets, D forms with d. Residues, ends and D or L forms follow the SMILES beside them. Dap = NC[C@H](N)C(=O)O

Biological target: T1, neurokinin A receptor (receptor NK-2) (Oryctolagus cuniculus, UniProt P79218)
T1 construct: The said preparation consisted of isolated rabbit pulmonary artery; from tissue; host or cells: isolated rabbit pulmonary artery
T1 sequence (P79218 1-384): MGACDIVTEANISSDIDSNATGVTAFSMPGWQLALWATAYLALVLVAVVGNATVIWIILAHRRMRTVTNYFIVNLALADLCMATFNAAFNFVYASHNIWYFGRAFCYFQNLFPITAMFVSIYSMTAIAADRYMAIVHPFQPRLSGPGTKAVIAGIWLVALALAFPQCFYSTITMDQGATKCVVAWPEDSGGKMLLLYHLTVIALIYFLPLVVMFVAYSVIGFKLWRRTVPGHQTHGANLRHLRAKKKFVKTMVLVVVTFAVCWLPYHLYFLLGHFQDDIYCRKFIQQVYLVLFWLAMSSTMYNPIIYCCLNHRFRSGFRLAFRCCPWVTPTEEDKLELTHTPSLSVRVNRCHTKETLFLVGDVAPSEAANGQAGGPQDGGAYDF
Assay: inhibition of NKA-induced contraction in isolated rabbit pulmonary artery
Format: cell-based
Details: compound, NKA 3 nM
Method: The capacity of the products described in the present invention to interact with the neurokinin A receptor as agonists or antagonists was assessed using a preparation characterized by the fact that the biological response produced by tachykinins and correlated peptides was exclusively determined by the neurokinin A receptor (receptor NK-2). The said preparation consisted of isolated rabbit pulmonary artery affected by a dose-dependentcontraction brought about by tachykinins (Rovero et al., Neuropeptides, 13, 263-270, 1989). The determination of the peptide activity in the test preparation was based on the use of an NKA concentration (3 nM) causing a response equal to 45% of max. response. The peptides considered herein were added to the preparation in growing concentrations. Their activity was assessed as inhibition of response to NKA.

## CSCC[C@@H]1NC(=O)[C@H](CC(C)C)NC(=O)[C@@H]2CNC(=O)C[C@H](NC1=O)C(=O)N[C@@H](Cc1c[nH]c3ccccc13)C(=O)N[C@@H](Cc1ccccc1)C(=O)N2 [Compound 1] (cyclo(DWF[Dap]LM); lactam 1-4)
  inhibition of response to neurokinins A: 100%
